Consider 4 compounds from US20250073680A1, “METHOD OF REGENERATING BIS(IMINOGUANIDINE) CARBON DIOXIDE SORBENTS FROM CARBONATE OR BICARBONATE SALT THEREOF” (UT-Battelle, LLC, priority 2023, published 2025).

Data set [1] is described as follows: Stability after steam stripping by NMR and XRD. The conditions noted are these: 1H-NMR and XRD versus synthesized / conventionally regenerated sample. Format: physicochemical. The protocol:
Infrared sensors for CO2 concentration measurements in the inlet and outlet gas streams were used. For gas sample measurements, the exhaust gas passed through a water trap and hydrophobic filter (CM-0118) prior to reaching the sensor to avoid excess water. A total inorganic carbon analyzer containing an acidification module and a CO2 coulometer module was used to determine inorganic carbon content in solid samples. Air at 100 mL/min was used as a carrier gas, and calculations were based on sample weight. A 1 M Na2CO3 solution was used as a standard. Solid samples (40-60 mg) were weighed out into small Teflon cups, and the entire cup was transferred into a 15-mL sample flask. A volume of 5 mL of 2 M HCl acid was dispensed to acidify each sample. Solid samples were analyzed in duplicates. X-ray diffraction (XRD) measurements were conducted using an X-ray diffraction system equipped with a solid-state detector. For the XRD measurements, X-rays were generated at 45 kV/40 mA, and the X-ray beam wavelength was λ=1.5406 A (Cu Kα radiation). Nuclear magnetic resonance (NMR) measurements were performed to quantify solvent degradation after regeneration. The 1D spectra were recorded on a 400 MHz NMR spectrometer equipped with a 5 mm BBI or BBO probe. A residual solvent peak was used as an internal reference (DMSO-d6: 2.50 ppm). […]

The conditions of data set [2]: total regeneration energy; cited from earlier work.
A short description of data set [3]: Aqueous solubility of regenerated sorbent. As to conditions: free base. The data set is classed as physicochemical.

Entries after “also recorded” stand apart in the source; their conditions may differ.

Turning to `N=C(N)NN=CC=NNC(=N)N` [GBIG, glyoxal-bis(iminoguanidine)], the “chemical stability after direct steam regeneration” value in data set [1] is “no chemical degradation occurred”. Regarding `N=C(N)N/N=C/C=N/NC(=N)N` [GBIG-C, GBIG carbonate], the regeneration energy in data set [2] is listed as 3.4 kJ/g-CO2. In the case of `CC(/C=N/NC(=N)N)=N\NC(=N)N` [MGBIG, methylglyoxal-bis(iminoguanidine)], in data set [3], the aqueous solubility entry is given as “completely dissolved in water; also recorded: high aqueous solubility”. The “chemical stability after direct steam regeneration” value in data set [1] is given as “no chemical degradation occurred”.

For `CC(/C=N/NC(=N)N)=N\NC(=N)N` [MGBIG-C, methylglyoxal-bis(iminoguanidine) (MGBIG) carbonate], in data set [2], the regeneration energy is listed as 7.0-10.2 kJ/g-CO2.
